Entries after “also recorded” stand apart in the source; their conditions may differ.
Assays:
ubiquitin = experiment: MN ubiquitin levels by single cell imaging; assay type: cell-based, mouse; conditions: days 21 and 28, SOD1^G93A/HB9::GFP MNs
From the text: Insets show higher magnification of cells contained within white circles. Data are presented as mean±SEM. * p<0.05 (Student's t test, two-tailed). Scale bar represents 50 μm.
It has been shown that SOD1^G93A accumulates in ubiquitinated aggregates after about 2 weeks of culture (Di Giorgio et al., 2007). Ubiquitinated proteins are found to be elevated in MNs of ALS patients and SOD1^G93A mice during neural degeneration (Watanabe et al., 2001; Wang et al., 2003). The inventors also observed the appearance of aggregates in their cultures at these later times (FIG. 5C). This led us to examine when differences in SOD1^G93A protein levels began to appear. […] Thus, the ability of kenpaullone to reduce the later periods of SOD1^G93A/HB9::GFP death coincides in time with the decreased levels of SOD1^G93A and ubiquitin.

Hb9:GFP MNs = experiment: MN survival in co-culture with wild-type or SOD1^G93A astrocytes; assay type: cell-based, mouse; conditions: nine days of compound treatment, trophic factors present
Description: FIGS. 3A and 3B show line graphs showing effects of kenpaullone and GSK-3 inhibitor VIII on MN death induced by treatment with a PI3K inhibitor. LY294002 was added to cultures on day 4, with or without concurrent treatment with 10 μM kenpaullone or 10 μM GSK-3 inhibitor VIII. Cells were fixed on day 7 for survival analysis. Survival is measured with respect to cells treated with DMSO alone. FIG. 3C is a bar graph showing that Kenpaullone also blocks death of MNs accelerated by co-culture with SOD1^G93A astrocytes. Hb9:GFP MNs were FACS sorted and plated on a confluent monolayer of wild-type or SOD1^G93A astrocytes. Kenpaullone was added to cultures 24 hrs later and was refreshed every three days by replacing half of the old medium with fresh medium containing IX concentration of the compound. Cells were fixed after nine days of compound treatment and MN survival was determined. Trophic factors were present throughout the experiment. Data are presented as percent survival normalized to that of DMSO treated MNs plated on wild-type astrocytes. Again, kenpaullone was effective in decreasing the extent of death. * p<0.05, ** p<0.01, *** p<0.001 (Student's t test, two-tailed). Data are presented as mean±SEM. […]

MLK3 = target: T1, MLK3 (Homo sapiens, UniProt Q16584); experiment: Kinase activity assay with MBP substrate; assay type: biochemical; conditions: recombinant kinase, myelin basic protein substrate
T1 construct: purchased SignalChem
T1 sequence (Q16584 whole entry): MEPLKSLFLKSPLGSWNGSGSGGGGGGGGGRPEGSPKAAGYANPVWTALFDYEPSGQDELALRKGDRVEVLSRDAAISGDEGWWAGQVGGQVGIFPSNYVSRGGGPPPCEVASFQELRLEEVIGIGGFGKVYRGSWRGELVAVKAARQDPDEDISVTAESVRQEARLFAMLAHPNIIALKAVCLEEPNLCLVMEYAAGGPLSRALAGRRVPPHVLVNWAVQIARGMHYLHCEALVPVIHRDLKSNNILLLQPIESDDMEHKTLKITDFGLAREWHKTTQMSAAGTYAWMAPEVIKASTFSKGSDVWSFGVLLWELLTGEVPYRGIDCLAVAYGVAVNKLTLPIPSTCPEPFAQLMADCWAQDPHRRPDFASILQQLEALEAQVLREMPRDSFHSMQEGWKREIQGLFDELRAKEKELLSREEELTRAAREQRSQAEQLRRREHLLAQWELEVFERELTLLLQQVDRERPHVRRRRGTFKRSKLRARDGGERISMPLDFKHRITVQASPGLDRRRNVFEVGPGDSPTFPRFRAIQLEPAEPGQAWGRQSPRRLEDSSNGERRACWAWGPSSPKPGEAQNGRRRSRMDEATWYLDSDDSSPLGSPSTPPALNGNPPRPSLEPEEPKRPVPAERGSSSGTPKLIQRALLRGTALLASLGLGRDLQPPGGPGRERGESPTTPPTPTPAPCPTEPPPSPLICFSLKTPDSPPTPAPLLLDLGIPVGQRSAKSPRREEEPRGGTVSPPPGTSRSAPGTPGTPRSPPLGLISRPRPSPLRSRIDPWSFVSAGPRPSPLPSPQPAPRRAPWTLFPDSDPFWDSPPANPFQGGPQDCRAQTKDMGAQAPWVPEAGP
From the text: (§1) The enzymatic reaction was stopped with Laemmli buffer and samples were separated in a polyacrylamide gel. Finally, the gel was exposed to a Storage Phosphor Screen (GE Healthcare) and scanned in a Typhoon 9400 scanner (GE Healthcare). Signal density was estimated with Quantity One software (Bio-Rad).

HGK = HGK (Homo sapiens, UniProt O95819); experiment: Kinase activity assay with MBP substrate; assay type: biochemical; conditions: recombinant kinase, myelin basic protein substrate
HGK, sequence (O95819 whole entry): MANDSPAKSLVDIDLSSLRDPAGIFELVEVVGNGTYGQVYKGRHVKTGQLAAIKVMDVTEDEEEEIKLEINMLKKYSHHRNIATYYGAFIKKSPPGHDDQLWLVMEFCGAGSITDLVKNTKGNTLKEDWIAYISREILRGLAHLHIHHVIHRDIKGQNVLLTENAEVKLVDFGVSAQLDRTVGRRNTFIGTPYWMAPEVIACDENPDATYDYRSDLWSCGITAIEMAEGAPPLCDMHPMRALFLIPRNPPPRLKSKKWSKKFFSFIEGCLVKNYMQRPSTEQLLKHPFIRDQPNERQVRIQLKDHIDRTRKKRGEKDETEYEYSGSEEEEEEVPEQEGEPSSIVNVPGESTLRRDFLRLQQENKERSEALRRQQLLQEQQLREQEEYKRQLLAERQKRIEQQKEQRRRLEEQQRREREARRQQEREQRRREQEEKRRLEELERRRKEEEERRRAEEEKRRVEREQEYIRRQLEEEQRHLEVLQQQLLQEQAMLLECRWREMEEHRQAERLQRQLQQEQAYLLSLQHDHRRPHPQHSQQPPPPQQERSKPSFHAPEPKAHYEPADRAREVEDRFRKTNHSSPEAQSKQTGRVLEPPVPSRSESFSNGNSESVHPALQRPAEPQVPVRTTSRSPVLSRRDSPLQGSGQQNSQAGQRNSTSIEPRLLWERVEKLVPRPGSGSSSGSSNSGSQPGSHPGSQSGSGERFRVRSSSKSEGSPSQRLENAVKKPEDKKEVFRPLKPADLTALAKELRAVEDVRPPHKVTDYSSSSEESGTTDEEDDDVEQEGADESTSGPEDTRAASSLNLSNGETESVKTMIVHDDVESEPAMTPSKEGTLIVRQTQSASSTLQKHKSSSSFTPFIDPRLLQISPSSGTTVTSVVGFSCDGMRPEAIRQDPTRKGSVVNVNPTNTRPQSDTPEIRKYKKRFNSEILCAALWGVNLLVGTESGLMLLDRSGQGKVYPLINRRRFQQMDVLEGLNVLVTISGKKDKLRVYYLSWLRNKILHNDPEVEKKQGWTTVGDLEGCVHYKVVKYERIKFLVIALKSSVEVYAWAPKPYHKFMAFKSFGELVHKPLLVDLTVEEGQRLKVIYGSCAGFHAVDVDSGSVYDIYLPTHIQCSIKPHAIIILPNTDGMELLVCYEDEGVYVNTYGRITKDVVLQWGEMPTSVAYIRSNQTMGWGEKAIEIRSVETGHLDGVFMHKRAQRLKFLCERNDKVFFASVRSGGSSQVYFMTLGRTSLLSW
From the text: as §1

SOD1^G93A protein = experiment: SOD1 protein levels by Western blotting and single cell imaging; assay type: cell-based, human
Description: In FIG. 5A cultures grown for 21 days in the indicated conditions were analyzed for levels of human SOD1 protein. The antibody used was specific for human SOD1, as is seen by the lack of staining on wild-type mouse MNs (HB9::GFP). When analyzed on day 21, levels of mutant SOD1^G93A protein, but not wt SOD1 protein, were decreased when cells were treated with kenpaullone in the absence of trophic factors. When analyzed on day 21, SOD1^G93A protein, but not wt SOD1 protein, was decreased when cultures were treated with kenpaullone in the presence of trophic factors as well (FIG. 5B). […] By this analysis, again on day 21, the average amount of SOD1 per MN was decreased by kenpaullone treatment in both +TF and −TF conditions. Scale bar represents 50 μm (FIG. 5C). Data are presented as mean±SEM. * p<0.05, *** p<0.001 (Student's t test, two-tailed).
Immunostaining was carried out using standard protocols (Makhortova et al., 2011). […]
Since the additional death undergone by the SOD1^G93A/HB9::GFP MNs seems likely to relate to their expression of high levels of SOD1^G93A protein, one possibility is that kenpaullone could act in part by reducing those levels. Kenpaullone was added to cultures on day 4, and the levels of mutant SOD1^G93A protein were analyzed by Western blotting on day 21 (FIGS. 5A and 5B). […]

HB9::GFP MNs = experiment: MN death induced by PI3K inhibitor LY294002; assay type: cell-based; conditions: 10 μM co-incubated with LY294002
Description: (§2) FIGS. 3A and 3B show line graphs showing effects of kenpaullone and GSK-3 inhibitor VIII on MN death induced by treatment with a PI3K inhibitor. LY294002 was added to cultures on day 4, with or without concurrent treatment with 10 μM kenpaullone or 10 μM GSK-3 inhibitor VIII. Cells were fixed on day 7 for survival analysis. Survival is measured with respect to cells treated with DMSO alone. FIG. 3C is a bar graph showing that Kenpaullone also blocks death of MNs accelerated by co-culture with SOD1^G93A astrocytes. Hb9:GFP MNs were FACS sorted and plated on a confluent monolayer of wild-type or SOD1^G93A astrocytes. Kenpaullone was added to cultures 24 hrs later and was refreshed every three days by replacing half of the old medium with fresh medium containing IX concentration of the compound. Cells were fixed after nine days of compound treatment and MN survival was determined. Trophic factors were present throughout the experiment. Data are presented as percent survival normalized to that of DMSO treated MNs plated on wild-type astrocytes. Again, kenpaullone was effective in decreasing the extent of death. * p<0.05, ** p<0.01, *** p<0.001 (Student's t test, two-tailed). Data are presented as mean±SEM.
(§3) The PI3K/Akt pathway is well known to regulate neuronal survival including that of MNs (Brunet et al., 2001; Barthélémy et al., 2004). […] The inventors sought to examine if either kenpaullone or a more specific GSK-3 inhibitor (Inhibitor VIII) could protect MNs from death caused by inactivation of PI3K/AKT. […] Thus kenpaullone's effects are not restricted to protection after trophic factor withdrawal.

SOD1^G93A/HB9::GFP MNs = experiment: MN death induced by PI3K inhibitor LY294002; assay type: cell-based; conditions: 10 μM co-incubated with LY294002
Description: as §2, §3

PAK 4, 5 and 6 = conditions: cited from earlier work

SMILES: O=C1Cc2c([nH]c3ccc(Br)cc23)-c2ccccc2N1 [Kenpaullone]
- MN levels of ubiquitin (ubiquitin): reduced
- MN survival on SOD1^G93A astrocytes (Hb9:GFP MNs): improved survival
- MN survival on wild-type astrocytes (Hb9:GFP MNs): improved survival
- MLK3 activity (MLK3): not
- HGK activity (HGK): inhibited; also recorded: strongly inhibits
- levels of SOD1^G93A protein (SOD1^G93A protein; added day 4, Western blotting day 21, with and without trophic factors): sharp decrease
- mutant protein levels, untreated versus treated cultures (SOD1^G93A protein; until sometime after 15 days of treatment): no differences
- protection from LY294002-induced MN death (HB9::GFP MNs): significantly attenuated
- protection from LY294002-induced MN death (SOD1^G93A/HB9::GFP MNs): significantly attenuated
- inhibition of PAK 4, 5 and 6 (PAK 4, 5 and 6): inhibits

From patent US20160082015A1, “METHODS, COMPOSITIONS AND KITS FOR PROMOTING MOTOR NEURON SURVIVAL AND TREATING AND DIAGNOSING NEURODEGENERATIVE DISORDERS” (PRESIDENT AND FELLOWS OF HARVARD COLLEGE, priority 2013, published 2016)
